Experimental data from the NIST ThermoML archive (doi:10.1021/je400332j).

Assay: xn = mol fraction of the nth substance listed
Details: 101 kPa, Liquid; for viscosity: Concentric cylinders viscometry; for mass density: Vibrating tube method

CCCn1cc[n+](C)c1.F[B-](F)(F)F [1-propyl-3-methylimidazolium tetrafluoroborate] + CCCCCCn1cc[n+](C)c1.F[B-](F)(F)F
Details | mass density [kg/m3] | viscosity [mPa·s]
293.15 K, x1 = 0.1006 | 1154.7 | 257.8
293.15 K, x1 = 0.2005 | 1162.5 | 233.5
293.15 K, x1 = 0.2995 | 1170.4 | 212.7
293.15 K, x1 = 0.3996 | 1179.1 | 195.9
293.15 K, x1 = 0.4991 | 1188.1 | 176.5
293.15 K, x1 = 0.601 | 1197.2 | 158.4
293.15 K, x1 = 0.7001 | 1207.1 | 141.4
293.15 K, x1 = 0.8 | 1217.3 | 125.1
293.15 K, x1 = 0.8987 | 1228 | 110.2
293.15 K, x1 = 1 | 1239.3 | 95.44
298.15 K, x1 = 0.1006 | 1151.2 | 190.4
298.15 K, x1 = 0.2005 | 1159.1 | 173.1
298.15 K, x1 = 0.2995 | 1167.1 | 158.5
298.15 K, x1 = 0.3996 | 1175.6 | 146.3
298.15 K, x1 = 0.4991 | 1184.5 | 132.5
298.15 K, x1 = 0.601 | 1193.7 | 119.6
298.15 K, x1 = 0.7001 | 1203.6 | 107.2
298.15 K, x1 = 0.8 | 1213.9 | 95.66
298.15 K, x1 = 0.8987 | 1224.5 | 84.81
298.15 K, x1 = 1 | 1235.7 | 74.04
303.15 K, x1 = 0.1006 | 1147.8 | 143.5
303.15 K, x1 = 0.2005 | 1155.6 | 131.1
303.15 K, x1 = 0.2995 | 1163.5 | 120.5
303.15 K, x1 = 0.3996 | 1172 | 111.6
303.15 K, x1 = 0.4991 | 1181 | 101.6
303.15 K, x1 = 0.601 | 1190.2 | 92.16
303.15 K, x1 = 0.7001 | 1200 | 83.12
303.15 K, x1 = 0.8 | 1210.2 | 74.61
303.15 K, x1 = 0.8987 | 1220.8 | 66.57
303.15 K, x1 = 1 | 1232 | 58.59
308.15 K, x1 = 0.1006 | 1144.4 | 110.3
308.15 K, x1 = 0.2005 | 1152.1 | 101.2
308.15 K, x1 = 0.2995 | 1160.1 | 93.37
308.15 K, x1 = 0.3996 | 1168.6 | 86.79
308.15 K, x1 = 0.4991 | 1177.4 | 79.34
308.15 K, x1 = 0.601 | 1186.7 | 72.34
308.15 K, x1 = 0.7001 | 1196.4 | 65.59
308.15 K, x1 = 0.8 | 1206.6 | 59.23
308.15 K, x1 = 0.8987 | 1217.2 | 53.19
308.15 K, x1 = 1 | 1228.3 | 47.16
313.15 K, x1 = 0.1006 | 1141 | 86.32
313.15 K, x1 = 0.2005 | 1148.6 | 79.47
313.15 K, x1 = 0.2995 | 1156.6 | 73.61
313.15 K, x1 = 0.3996 | 1165.1 | 68.66
313.15 K, x1 = 0.4991 | 1173.9 | 63.07
313.15 K, x1 = 0.601 | 1183.2 | 57.75
313.15 K, x1 = 0.7001 | 1192.8 | 52.63
313.15 K, x1 = 0.8 | 1203 | 47.79
313.15 K, x1 = 0.8987 | 1213.5 | 43.19
313.15 K, x1 = 1 | 1224.7 | 38.56
318.15 K, x1 = 0.1006 | 1137.6 | 68.62
318.15 K, x1 = 0.2005 | 1145.2 | 63.43
318.15 K, x1 = 0.2995 | 1153.1 | 58.96
318.15 K, x1 = 0.3996 | 1161.6 | 55.18
318.15 K, x1 = 0.4991 | 1170.4 | 50.91
318.15 K, x1 = 0.601 | 1179.7 | 46.8
318.15 K, x1 = 0.7001 | 1189.3 | 42.87
318.15 K, x1 = 0.8 | 1199.4 | 39.14
318.15 K, x1 = 0.8987 | 1209.9 | 35.56
318.15 K, x1 = 1 | 1221 | 31.98
323.15 K, x1 = 0.1006 | 1134.2 | 55.36
323.15 K, x1 = 0.2005 | 1141.7 | 51.35
323.15 K, x1 = 0.2995 | 1149.6 | 47.9
323.15 K, x1 = 0.3996 | 1158.1 | 44.99
323.15 K, x1 = 0.4991 | 1166.9 | 41.66
323.15 K, x1 = 0.601 | 1176.1 | 38.47
323.15 K, x1 = 0.7001 | 1185.8 | 35.41
323.15 K, x1 = 0.8 | 1195.8 | 32.48
323.15 K, x1 = 0.8987 | 1206.2 | 29.67
323.15 K, x1 = 1 | 1217.4 | 26.83
328.15 K, x1 = 0.1006 | 1130.8 | 45.26
328.15 K, x1 = 0.2005 | 1138.3 | 42.13
328.15 K, x1 = 0.2995 | 1146.2 | 39.43
328.15 K, x1 = 0.3996 | 1154.7 | 37.15
328.15 K, x1 = 0.4991 | 1163.4 | 34.53
328.15 K, x1 = 0.601 | 1172.6 | 32.02
328.15 K, x1 = 0.7001 | 1182.3 | 29.61
328.15 K, x1 = 0.8 | 1192.1 | 27.28
328.15 K, x1 = 0.8987 | 1202.7 | 25.04
328.15 K, x1 = 1 | 1213.8 | 22.77
333.15 K, x1 = 0.1006 | 1127.4 | 37.44
333.15 K, x1 = 0.2005 | 1134.9 | 34.97
333.15 K, x1 = 0.2995 | 1142.7 | 32.83
333.15 K, x1 = 0.3996 | 1151.3 | 31.04
333.15 K, x1 = 0.4991 | 1159.9 | 28.95
333.15 K, x1 = 0.601 | 1169.2 | 26.95
333.15 K, x1 = 0.7001 | 1178.7 | 25.03
333.15 K, x1 = 0.8 | 1188.6 | 23.15
333.15 K, x1 = 0.8987 | 1199.1 | 21.37
333.15 K, x1 = 1 | 1210.2 | 19.54
338.15 K, x1 = 0.1006 | 1124.1 | 31.31
338.15 K, x1 = 0.2005 | 1131.5 | 29.33
338.15 K, x1 = 0.2995 | 1139.3 | 27.63
338.15 K, x1 = 0.3996 | 1147.8 | 26.21
338.15 K, x1 = 0.4991 | 1156.5 | 24.53
338.15 K, x1 = 0.601 | 1165.7 | 22.92
338.15 K, x1 = 0.7001 | 1175.2 | 21.38
338.15 K, x1 = 0.8 | 1185.2 | 19.85
338.15 K, x1 = 0.8987 | 1195.5 | 18.4
338.15 K, x1 = 1 | 1206.6 | 16.92
343.15 K, x1 = 0.1006 | 1120.7 | 26.45
343.15 K, x1 = 0.2005 | 1128.1 | 24.83
343.15 K, x1 = 0.2995 | 1135.9 | 23.46
343.15 K, x1 = 0.3996 | 1144.4 | 22.3
343.15 K, x1 = 0.4991 | 1153 | 20.96
343.15 K, x1 = 0.601 | 1162.2 | 19.65
343.15 K, x1 = 0.7001 | 1171.7 | 18.4
343.15 K, x1 = 0.8 | 1181.6 | 17.19
343.15 K, x1 = 0.8987 | 1192 | 15.98
343.15 K, x1 = 1 | 1203 | 14.77
